Several values for one entry are separate records, joined by “and”; a condition that tells them apart may be missing. Equal entries are not always repeated.
Legend:
C2C12 myotubes = test: Western blotting of C2C12 myotubes; format: cell-based, mouse
Procedure: C2C12 murine skeletal muscle myoblasts were purchased from Koram Biotech Corp. (Seoul, Republic of Korea). Prior to experiments, mycoplasma contamination was eliminated using the MycoXpert Mycoplasma Removal Reagent (MYX-B, CAPRICORN) following the manufacturer’s protocol. To ensure complete removal, all cells were passaged three times after treatment before being used in subsequent experiments. No STR profiling was recently undertaken. Myoblasts were cultured in growth media (GM), containing Dulbecco’s modified Eagle’s medium (DMEM), 10% fetal bovine serum, and 1% penicillin and streptomycin (PenStrep). C2C12 myoblasts were differentiated into myotubes at more than 80% confluence by culture in differentiation media (DM), containing DMEM supplemented with 2% horse serum and PenStrep, for 96 h. To induce atrophy, the myotubes were treated with DM plus 10 μM Dex for 24 h. BML-260 and SP600125 were purchased from Santa Cruz Biotechnology, TX, USA (cat. no. sc-223822 and sc-200635).
Western blotting was carried out using the previously published protocol (Lee et al, [2020]). The NIH imaging software Image J 64 was used for densitometry analysis of the gel bands. The primary and secondary antibodies used in this study are shown in the reagent and tools table. Chemiluminescence was used to detect the secondary antibody. […]

C57BL/6 mice = test: Hind limb immobilization model, BML-260 treatment; format: in vivo, mouse
Procedure: Western blotting was carried out using the previously published protocol (Lee et al, [2020]). The NIH imaging software Image J 64 was used for densitometry analysis of the gel bands. The primary and secondary antibodies used in this study are shown in the reagent and tools table. Chemiluminescence was used to detect the secondary antibody.
To immobilize the hind limbs, 14-week-old male C57BL/6 mice were anesthetized with isoflurane and both hind limbs were fixed with plastic EP-tubes (Axygen, MCT-175-C). To prevent the tubes from slipping, the junction between the tubes and the hind limbs were wrapped with insulating tape. BML-260 was treated as follows: (1) vehicle alone (5% DMSO + 5% tween 80) and (2) 5 mg/kg BML-260 (n = 3 per group). The mice were monitored daily and sacrificed after 14 days.
Mice were anesthetized using ketamine (22 mg/kg; Yuhan, Republic of Korea) and xylazine (10 mg/kg; Bayer, Republic of Korea) in saline by IP injection. The quadriceps, gastrocnemius, soleus and TA muscles were then dissected and weighed. For histological analysis, the muscles were fixed by overnight incubation with 4% paraformaldehyde in PBS pH 7.4 at 4 °C. Paraffin sectioning and H&E staining were provided by the Animal Housing Facility, Gwangju Institute of Science and Technology, Republic of Korea (5 µm muscle sections using a Thermo Scientific HistoStar (Thermofisher). H&E staining was carried out with a kit (Merck, Germany)). For immunohistochemistry, TA muscle sections were permeabilized for 15 min (PBS with 0.5% Triton X-100), blocked for 1 h (5% BSA) and incubated with the primary antibody overnight at 4 °C (a list of primary and secondary antibodies used in this study are provided in Appendix Tables S4 and S5, respectively). After washing with PBS 3 times for 5 min, the sections were incubated with the secondary antibody at RT for 1 h. The nuclei were counterstained with DAPI in ProLong™ Gold Antifade Mountant (Invitrogen, P36935). Digital images were acquired with Leica DM 2500 (Leica Microsystems). Cross sectional area (CSA) and fiber size distribution was measured using the NIH imaging software Image J 64. To CSA and size distribution of different fiber types was calculated in 4 muscle section as follows: type 2 A: 30–40 fibers measured; type 2B: at least 100 fibers measured; type 2X: 30–40 fibers measured.

[1] = system: VH1-related (VHR) phosphatase; design: method as in Cutshall et al, 2005; conditions: ref Cutshall et al, 2005; cited from earlier work
[2] = design: method as in ref [9] Feng et al, 2019; conditions: pH range 3 to 7.4, HPLC; ref [9] Feng et al, 2019; cited from earlier work
adipocytes = system: adipocytes; design: method as in Feng et al, 2019; conditions: ref Feng et al, 2019; cited from earlier work
C57BL/6J mice = test: Dex treatment mouse model of skeletal muscle atrophy, BML-260 treatment; format: in vivo; conditions: TA muscle of C57BL/6 mice treated with Dex, Vehicle average = 1, n = 4
[3] = 5 mg/kg BML-260, 14 days immobilization
[4] = TA of immobilized mice (Fig EV4), Sham average = 1
[5] = TA of immobilized mice (Fig EV4), Sham average = 1, individual animals

SMILES	atrogin-1, MuRF-1 and DUSP22 levels, western blot (C2C12 myotubes; Dex-treated myotubes)	Akt activity (C2C12 myotubes; summary statement of the discussion)	DUSP22 levels in TA and gastrocnemius muscles, western blot (C57BL/6 mice; [3])	MYH4 (myosin heavy chain 2B) in TA muscle, western blot (C57BL/6 mice; [3])	atrogin-1 and MuRF-1 expression in immobilized TA, western blot (C57BL/6 mice; [3])	phosphorylation level of JNK in TA muscle, western blot (C57BL/6 mice; [3])	DUSP22, western blot quantification, Average (C57BL/6 mice; SHAM average = 1)	DUSP22, western blot quantification (C57BL/6 mice; SHAM average = 1, individual animals)	DUSP22, western blot quantification, Average (C57BL/6 mice; TA muscle of immobilized mice (Fig EV5), Sham average = 1)	DUSP22, western blot quantification (C57BL/6 mice; TA muscle of immobilized mice (Fig EV5), Sham average = 1, individual animals)	p-jnk/jnk, western blot quantification, Average (C57BL/6 mice; TA muscle of immobilized mice, Sham average = 1)	p-jnk/jnk, western blot quantification (C57BL/6 mice; TA muscle of immobilized mice, Sham average = 1, individual animals)	DUSP22, western blot quantification, Average (C57BL/6 mice; [4])	MYH4, western blot quantification, Average (C57BL/6 mice; [4])	DUSP22, western blot quantification (C57BL/6 mice; [5])	MYH4, western blot quantification (C57BL/6 mice; [5])	inhibitory effect against VHR phosphatase [1]	stability at pH values within normal physiological conditions [2]	expression of uncoupling protein-1 (UCP-1) (adipocytes)	DUSP22 expression, qPCR, Average (C57BL/6J mice)
O=C(O)c1ccc(N2C(=O)C(=Cc3ccccc3)SC2=S)cc1 (stereo in doubt) [BML-260]	reduced	not upregulated	reduced DUSP22 levels	upregulation	downregulated	reduction	0.5293	0.9793 and 0.6244 and 0.3303 and 0.3563 and 0.317 and 0.5687	1.168	1.324 and 0.9536 and 0.9932 and 1.399	0.4787	0.7134 and 0.5569 and 0.2233 and 0.4213	1.587	0.928	1.411 and 2.335 and 2.043 and 0.8602 and 1.621 and 1.251	1.0151 and 0.5864 and 0.9197 and 0.796 and 1.189 and 1.062	no inhibitory effect	predicted to be stable	upregulates	–
C[C@@H]1C[C@H]2[C@@H]3CCC4=CC(=O)C=C[C@]4(C)[C@@]3(F)[C@@H](O)C[C@]2(C)[C@@]1(O)C(=O)CO [Dex, dexamethasone]	–	–	–	–	–	–	–	–	–	–	–	–	–	–	–	–	–	–	–	1.655

— PMC12162873, “Modulating phosphatase DUSP22 with BML-260 ameliorates skeletal muscle wasting via Akt independent JNK-FOXO3a repression” (EMBO Molecular Medicine, 2025)
